Assays:
blackgrass = experiment: Test C preemergence/postemergence greenhouse plant response rating 0 to 100; assay type: in vivo, Alopecurus myosuroides; settings: for Plant response rating, Blackgrass: 62 g/ha, 0 to 100 scale
Method in brief: (§1)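 Compounds in non-phytotoxic solvent applied preemergence to sandy loam one day after planting, postemergence at the 1–4 leaf stage, or to ~2.5 cm floodwater over silt loam.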

rape = experiment: as above; assay type: in vivo, Brassica napus; settings: for Plant response rating, Rape: 62 g/ha, 0 to 100 scale
Method in brief: as §1

rice = experiment: Test C flood test plant response rating 0 to 100; assay type: in vivo, Oryza sativa
Method in brief: as §1

giant foxtail [1] = experiment: Test B preemergence/postemergence greenhouse plant response rating 0 to 10; assay type: in vivo, Setaria faberii; settings: 0 to 10 scale
Method in brief: (§2)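 Test chemicals were sprayed onto freshly planted seed and, concurrently, onto young plants between the one and four leaf stage. After a twelve- to sixteen-day greenhouse period, each species was visually compared with untreated controls.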

soybean = experiment: Test C preemergence/postemergence greenhouse plant response rating 0 to 100; assay type: in vivo, Glycine max
Method in brief: as §1

lambsquarters = experiment: Test B preemergence/postemergence greenhouse plant response rating 0 to 10; assay type: in vivo, Chenopodium album; settings: 0 to 10 scale
Method in brief: as §2

giant foxtail [2] = experiment: Test C preemergence/postemergence greenhouse plant response rating 0 to 100; assay type: in vivo, Setaria faberii; settings: for Plant response rating, Giant foxtail: 62 g/ha, 0 to 100 scale
Method in brief: as §1

cheatgrass = experiment: Test B preemergence/postemergence greenhouse plant response rating 0 to 10; assay type: in vivo, Bromus secalinus; settings: 0 to 10 scale
Method in brief: as §2

barley = experiment: as above; assay type: in vivo, Hordeum vulgare; settings: 0 to 10 scale
Method in brief: as §2

SMILES: CCN1C(=O)COc2cc(F)c(-c3nn4c(c3Cl)CCCC4)cc21 [Compound 54]
- Plant response rating, Blackgrass (blackgrass; POSTEMERGENCE): 60
- Plant response rating (0 to 100), Blackgrass (blackgrass; POSTEMERGENCE, Rate 1 g/ha): 30
- Plant response rating (0 to 100), Blackgrass (blackgrass; POSTEMERGENCE, Rate 4 g/ha): 40
- Plant response rating, Blackgrass (blackgrass; PREEMERGENCE): 70
- Plant response rating (0 to 100), Blackgrass (blackgrass; PREEMERGENCE, Rate 1 g/ha): 0
- Plant response rating (0 to 100), Blackgrass (blackgrass; PREEMERGENCE, Rate 4 g/ha): 10
- Plant response rating (0 to 100), Blackgrass (blackgrass; Rate 16 g/ha, POSTEMERGENCE): 50
- Plant response rating (0 to 100), Blackgrass (blackgrass; Rate 16 g/ha, PREEMERGENCE): 20
- Plant response rating, Rape (rape; POSTEMERGENCE): 100
- Plant response rating (0 to 100), Rape (rape; POSTEMERGENCE, Rate 1 g/ha): 50
- Plant response rating (0 to 100), Rape (rape; POSTEMERGENCE, Rate 4 g/ha): 50
- Plant response rating, Rape (rape; PREEMERGENCE): 10
- Plant response rating (0 to 100), Rape (rape; PREEMERGENCE, Rate 1 g/ha): 0
- Plant response rating (0 to 100), Rape (rape; PREEMERGENCE, Rate 4 g/ha): 0
- Plant response rating (0 to 100), Rape (rape; Rate 16 g/ha, POSTEMERGENCE): 100
- Plant response rating (0 to 100), Rape (rape; Rate 16 g/ha, PREEMERGENCE): 0
- Plant response rating (0 to 100), Rice Japonica (rice; POSTEMERGENCE section, flood test, Rate 1 g/ha): 0
- Plant response rating (0 to 100), Rice Japonica (rice; POSTEMERGENCE section, flood test, Rate 4 g/ha): 0
- Plant response rating (0 to 100), Rice Japonica (rice; Rate 16 g/ha, under POSTEMERGENCE head (flood test species)): 55
- Plant response rating Rice Japonica (rice; flood test species listed under POSTEMERGENCE, 62 g/ha, 0 to 100 scale): 85
- Plant response rating, Giant foxtail (giant foxtail [1]; POSTEMERGENCE, Rate 10 g/ha): 4
- Plant response rating, Giant foxtail (giant foxtail [1]; POSTEMERGENCE, Rate 50 g/ha): 4
- Plant response rating, Giant foxtail (giant foxtail [1]; PREEMERGENCE, Rate 10 g/ha): 0
- Plant response rating, Giant foxtail (giant foxtail [1]; PREEMERGENCE, Rate 50 g/ha): 8
- Plant response rating, Soybean (soybean; POSTEMERGENCE, 62 g/ha, 0 to 100 scale): 95
- Plant response rating (0 to 100), Soybean (soybean; POSTEMERGENCE, Rate 1 g/ha): 50
- Plant response rating (0 to 100), Soybean (soybean; POSTEMERGENCE, Rate 4 g/ha): 65
- Plant response rating (0 to 100), Soybean (soybean; PREEMERGENCE, Rate 1 g/ha): 0
- Plant response rating (0 to 100), Soybean (soybean; PREEMERGENCE, Rate 4 g/ha): 0
- Plant response rating (0 to 100), Soybean (soybean; Rate 16 g/ha, POSTEMERGENCE): 85
- Plant response rating (0 to 100), Soybean (soybean; Rate 16 g/ha, PREEMERGENCE): 0
- Plant response rating, Lambsquarter (lambsquarters; POSTEMERGENCE, Rate 10 g/ha): 10
- Plant response rating, Lambsquarter (lambsquarters; POSTEMERGENCE, Rate 50 g/ha): 10
- Plant response rating, Lambsquarter (lambsquarters; PREEMERGENCE, Rate 50 g/ha): 10
- Plant response rating, Giant foxtail (giant foxtail [2]; POSTEMERGENCE): 70
- Plant response rating (0 to 100), Giant foxtail (giant foxtail [2]; POSTEMERGENCE, Rate 1 g/ha): 10
- Plant response rating (0 to 100), Giant foxtail (giant foxtail [2]; POSTEMERGENCE, Rate 4 g/ha): 20
- Plant response rating, Giant foxtail (giant foxtail [2]; PREEMERGENCE): 60
- Plant response rating (0 to 100), Giant foxtail (giant foxtail [2]; PREEMERGENCE, Rate 1 g/ha): 0
- Plant response rating (0 to 100), Giant foxtail (giant foxtail [2]; PREEMERGENCE, Rate 4 g/ha): 0
- Plant response rating (0 to 100), Giant foxtail (giant foxtail [2]; Rate 16 g/ha, POSTEMERGENCE): 40
- Plant response rating (0 to 100), Giant foxtail (giant foxtail [2]; Rate 16 g/ha, PREEMERGENCE): 0
- Plant response rating, Cheatgrass (cheatgrass; POSTEMERGENCE, Rate 10 g/ha): 5
- Plant response rating, Cheatgrass (cheatgrass; POSTEMERGENCE, Rate 50 g/ha): 7
- Plant response rating, Cheatgrass (cheatgrass; PREEMERGENCE, Rate 10 g/ha): 1
- Plant response rating, Cheatgrass (cheatgrass; PREEMERGENCE, Rate 50 g/ha): 3
- Plant response rating, Barley (barley; POSTEMERGENCE, Rate 10 g/ha): 4
- Plant response rating, Barley (barley; POSTEMERGENCE, Rate 50 g/ha): 4
- Plant response rating, Barley (barley; PREEMERGENCE, Rate 10 g/ha): 0

Reference: patent US6358885B1, “Substituted phenylheterocyclic herbicides” (Mississippi State University, priority 1992, dated 2002)
